Source: patent publication US20120129872A1, “FUSED HETEROARYL INHIBITORS OF PRO-MATRIX METALLOPROTEINASE ACTIVATION” (priority 2010, published 2012)

Assays:
[1] = target: T1, proMMP9(20-445;ΔFnII) (SEQ ID NO:6) (Homo sapiens, UniProt P14780, DEL216-390); test: ThermoFluor binding assay with proMMP9(20-445;ΔFnII)
T1 construct: start methionine (N); made in house; host or cells: E. coli BL21(DE3) RIL
T1 sequence (P14780 with tags, fused parts or gaps DEL216-390): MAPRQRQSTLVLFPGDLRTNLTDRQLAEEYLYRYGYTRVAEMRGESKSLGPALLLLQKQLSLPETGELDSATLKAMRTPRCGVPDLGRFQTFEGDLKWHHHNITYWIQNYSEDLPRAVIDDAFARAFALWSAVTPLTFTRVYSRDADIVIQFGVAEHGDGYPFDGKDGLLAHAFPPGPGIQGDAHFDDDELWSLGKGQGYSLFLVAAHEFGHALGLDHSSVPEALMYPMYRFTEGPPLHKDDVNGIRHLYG
Method: (§1) The ThermoFluor® (TF) assay is a 384-well plate-based binding assay that measures thermal stability of proteins (Biomol Screen 2001, 6, 429-40; Biochemistry 2005, 44, 5258-66). The experiments were carried out using instruments available from Johnson & Johnson Pharmaceutical Research & Development, LLC. TF dye used in all experiments was […] (1,8-ANS) (Invitrogen: A-47).
(§2) Compounds were arranged in a pre-dispensed plate (Greiner Bio-one: 781280), wherein compounds were serially diluted in 100% DMSO across 11 columns within a series. Columns 12 and 24 were used as DMSO reference and contained no compound. For multiple compound concentration-response experiments, the compound aliquots ([…]) were robotically predispensed directly into black 384-well polypropylene PCR microplates (Abgene: TF-0384/k) using a Cartesian Hummingbird liquid handler (DigiLab, Holliston, Mass.). Following compound dispense, protein and dye solutions were added to achieve the final assay volume of 3 μL. The assay solutions were overlayed with 1 μL of silicone oil (Fluka, type DC 200: 85411) to prevent evaporation.
(§3) Assay plates were robotically loaded onto a thermostatically controlled PCR-type thermal block and then heated from 40 to 90° C. at a ramp-rate of 1° C./min for all experiments. Fluorescence was measured by continuous illumination with UV light (Hamamatsu LC6) supplied via fiber optics and filtered through a band-pass filter (380-400 nm; >60D cutoff). Fluorescence emission of the entire 384-well plate was detected by measuring light intensity using a CCD camera (Sensys, Roper Scientific) filtered to detect 500±25 nm, resulting in simultaneous and independent readings of all 384 wells. A single image with 20-sec exposure time was collected at each temperature, and the sum of the pixel intensity in a given area of the assay plate was recorded vs temperature and fit to standard equations to yield the Tm (J Biomol Screen 2001, 6, 429-40).
(§4) Thermodynamic parameters necessary for fitting compound binding for each proMMP were estimated by differential scanning calorimetry (DSC) and from ThermoFluor® data. The heat capacity of unfolding for each protein was estimated from the molecular weight and from ThermoFluor® dosing data.
ThermoFluor® with proMMP9(20-445;ΔFnII (SEQ ID NO:6)
The protein sample preparations included a desalting buffer exchange step via a PD-10 gravity column (GE Healthcare). The desalting buffer exchange was performed prior to diluting the protein to the final assay concentration of 2.8 μM proMMP9(20-445;ΔFnII) (SEQ ID NO:6). The concentration of proMMP9(20-445;ΔFnII) (SEQ ID NO:6) was determined spectrophotometrically based on a calculated extinction coefficient of ε280=39880 M^−1 cm^−1, a calculated molecular weight of 28.2 kDa, and calculated pI of 5.5. ThermoFluor® reference conditions were define as follows: 80 μg/mL (2.8 μM) proMMP9(20-445;ΔFnII) (SEQ ID NO:6), 50 μM 1,8-ANS, pH 7.0 Buffer (50 mM HEPES pH 7.0, 100 mM NaCl, 0.001% Tween-20, 2.5 mM MgCl2, 300 μM CaCl2). The thermodynamic parameters for proMMP9(20-445;ΔFnII) (SEQ ID NO:6) are as follows: Tm (° C.)=72 (+/−0.1), ΔUH(Tm) (cal mol^−1)=160000(+/−5000), ΔUS(Tm) (cal mol^−1 K^−1)=434, ΔUCp (cal mol^−1 K^−1)=2400.

[2] = target: T2, proMMP9(67-444;ΔFnII) (SEQ ID NO:5) (Homo sapiens, UniProt P14780, DEL216-390); test: ThermoFluor binding assay with proMMP9(67-444;ΔFnII)
T2 construct: start methionine (N); made in house; host or cells: E. coli BL21(DE3) RIL
T2 sequence (P14780 with tags, fused parts or gaps DEL216-390): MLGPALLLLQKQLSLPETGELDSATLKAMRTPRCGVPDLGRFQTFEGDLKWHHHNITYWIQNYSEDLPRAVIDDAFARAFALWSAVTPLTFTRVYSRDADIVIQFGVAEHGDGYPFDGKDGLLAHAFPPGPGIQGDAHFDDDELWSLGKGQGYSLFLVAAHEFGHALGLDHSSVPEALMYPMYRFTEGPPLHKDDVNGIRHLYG
Method: as §1, §2, §3, §4
ThermoFluor® with proMMP9(67-444;ΔFnII (SEQ ID NO:5)
The protein sample preparations had to include a desalting buffer exchange step via a PD-10 gravity column (GE Healthcare). The desalting buffer exchange was performed prior to diluting the protein to the final assay concentration of 3.5 μM proMMP9(67-444;ΔFnII) (SEQ ID NO:5). The concentration of proMMP9(67-444;ΔFnII) (SEQ ID NO:5) was determined spectrophotometrically based on a calculated extinction coefficient of ε280=33900 M^−1 cm^−1, a calculated molecular weight of 22.6 kDa, and calculated pI of 5.20. ThermoFluor® reference conditions were defined as follows: 80 μg/mL (3.5 μM) proMMP9(67-444;ΔFnII) (SEQ ID NO:5), 50 μM 1,8-ANS, pH 7.0 Buffer (50 mM HEPES pH 7.0, 100 mM NaCl, 0.001% Tween-20, 2.5 mM MgCl2, 300 μM CaCl2). The thermodynamic parameters for proMMP9(67-444;ΔFnII) (SEQ ID NO:5) are as follows: Tm (° C.)=63 (+/−0.1), ΔUH(Tm) (cal mol^−1)=105000(+/−5000), ΔUS(Tm) (cal mol^−1 K^−1)=450, ΔuCp (cal mol^−1 K^−1)=2000.

[3] = target: T3, full-length proMMP9(1-707) (SEQ ID NO:1), activation by catalytic MMP3 (Homo sapiens, UniProt P14780, R574P); test: ProMMP9/MMP3 DQ Gelatin Activation Assay; format: biochemical; details: read-out: ProMMP9/MMP3 DQ gel Activation Assay, IC50
T3 construct: made in house; host or cells: HEK293 (transient, secreted)
From the text: ProMMP9/MMP3 DQ Gelatin Activation Assay

T3 sequence (P14780 20-707 R574P): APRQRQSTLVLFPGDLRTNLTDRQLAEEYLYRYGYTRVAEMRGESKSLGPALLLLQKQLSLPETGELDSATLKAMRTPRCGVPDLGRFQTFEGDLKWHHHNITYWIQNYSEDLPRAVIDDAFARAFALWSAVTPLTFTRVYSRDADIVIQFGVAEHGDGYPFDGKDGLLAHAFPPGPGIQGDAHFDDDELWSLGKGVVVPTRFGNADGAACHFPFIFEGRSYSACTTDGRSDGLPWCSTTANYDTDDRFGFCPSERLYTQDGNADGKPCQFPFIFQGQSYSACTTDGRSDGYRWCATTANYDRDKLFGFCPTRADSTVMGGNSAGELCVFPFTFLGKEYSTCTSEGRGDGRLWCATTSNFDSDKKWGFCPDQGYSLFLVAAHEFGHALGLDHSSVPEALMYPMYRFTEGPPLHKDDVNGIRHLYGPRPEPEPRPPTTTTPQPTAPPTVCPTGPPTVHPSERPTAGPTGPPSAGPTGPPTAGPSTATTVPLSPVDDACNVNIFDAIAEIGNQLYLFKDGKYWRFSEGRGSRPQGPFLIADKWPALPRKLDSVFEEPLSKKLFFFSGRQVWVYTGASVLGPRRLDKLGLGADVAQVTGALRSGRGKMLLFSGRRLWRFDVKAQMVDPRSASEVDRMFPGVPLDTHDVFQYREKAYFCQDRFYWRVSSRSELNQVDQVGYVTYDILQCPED

Which Kd [1] does the source give for COc1ccc([N+](=O)[O-])cc1Nc1nc(-c2cnc3ccccn23)cs1 [Example 28, (4-Imidazo[1,2-a]pyridin-3-yl-thiazol-2-yl)-(2-methoxy-5-nitro-phenyl)-amine] here?
The Kd was > 29 µM.

What about the Kd [2] of the same compound?
Its Kd is > 28 µM.

And the IC50 [3]?
Its IC50 is 5 µM.
